Assay results taken from paper PMC5564600 (Oncotarget, 2017).
Read-outs that look alike come from different tables or passages of the source.

Experiments:
Assay in all cases: biochemical
Type in all cases: binding
panel of 442 kinases [1] = target: T1, panel of 442 kinases (Homo sapiens, UniProt O14578); details: CIT; for remaining activity at 1 µM: read-out: % of control at 1 µM
T1 construct: purchased Ambit Biosciences (scanMAXX KINOMEscan)

panel of 442 kinases [2] = target: T2, panel of 442 kinases (Homo sapiens, UniProt P00519, T315I); details: for remaining activity at 1 µM: read-out: % of control at 1 µM; for remaining activity at 10 µM: read-out: % of control at 10 µM
T2 construct: purchased Ambit Biosciences (scanMAXX KINOMEscan)

panel of 442 kinases [3] = target: T3, panel of 442 kinases (Homo sapiens, UniProt P07949, V804M); details: kinase RET(V804M); for remaining activity at 1 µM: read-out: RET(V804M) (% of control at 1 µM)
T3 construct: purchased Ambit Biosciences (scanMAXX KINOMEscan)

panel of 442 kinases [4] = target: T4, panel of 442 kinases (Homo sapiens, UniProt P57078); details: kinase RIPK4; for remaining activity at 1 µM: read-out: RIPK4 (% of control at 1 µM)
T4 construct: purchased Ambit Biosciences (scanMAXX KINOMEscan)
T4 sequence (P57078 1-832): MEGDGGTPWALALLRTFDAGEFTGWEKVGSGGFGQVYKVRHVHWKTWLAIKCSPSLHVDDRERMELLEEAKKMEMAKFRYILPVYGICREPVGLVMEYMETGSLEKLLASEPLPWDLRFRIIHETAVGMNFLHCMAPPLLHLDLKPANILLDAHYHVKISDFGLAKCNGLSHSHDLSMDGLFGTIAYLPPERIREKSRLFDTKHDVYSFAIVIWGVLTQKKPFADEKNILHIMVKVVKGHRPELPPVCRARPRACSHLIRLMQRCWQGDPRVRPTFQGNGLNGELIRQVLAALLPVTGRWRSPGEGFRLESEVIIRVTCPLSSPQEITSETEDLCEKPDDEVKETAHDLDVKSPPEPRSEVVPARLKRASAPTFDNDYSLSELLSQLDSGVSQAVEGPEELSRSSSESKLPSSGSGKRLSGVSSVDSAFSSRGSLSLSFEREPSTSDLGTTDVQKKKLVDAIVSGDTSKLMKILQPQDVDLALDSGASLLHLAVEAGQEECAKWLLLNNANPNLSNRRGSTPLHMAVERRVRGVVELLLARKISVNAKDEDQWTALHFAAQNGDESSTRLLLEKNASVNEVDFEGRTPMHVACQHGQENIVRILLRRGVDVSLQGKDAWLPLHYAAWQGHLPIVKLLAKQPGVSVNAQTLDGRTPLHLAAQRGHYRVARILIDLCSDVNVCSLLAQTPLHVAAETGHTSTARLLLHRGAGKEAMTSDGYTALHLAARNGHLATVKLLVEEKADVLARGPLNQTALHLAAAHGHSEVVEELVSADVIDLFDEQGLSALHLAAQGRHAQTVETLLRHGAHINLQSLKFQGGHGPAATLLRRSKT

panel of 442 kinases [5] = target: T5, panel of 442 kinases (Homo sapiens, UniProt Q14680); details: kinase MELK; for remaining activity at 1 µM: read-out: % of control at 1 µM
T5 construct: purchased Ambit Biosciences (scanMAXX KINOMEscan)

panel of 442 kinases [6] = target: T6, panel of 442 kinases (Homo sapiens, UniProt Q15759); details: kinase p38-beta; for remaining activity at 1 µM: read-out: % of control at 1 µM
T6 construct: purchased Ambit Biosciences (scanMAXX KINOMEscan)

panel of 442 kinases [7] = target: T7, panel of 442 kinases (Homo sapiens, UniProt Q32MK0); details: kinase MLCK; for remaining activity at 1 µM: read-out: % of control at 1 µM
T7 construct: purchased Ambit Biosciences (scanMAXX KINOMEscan)
T7 sequence (Q32MK0 1-819): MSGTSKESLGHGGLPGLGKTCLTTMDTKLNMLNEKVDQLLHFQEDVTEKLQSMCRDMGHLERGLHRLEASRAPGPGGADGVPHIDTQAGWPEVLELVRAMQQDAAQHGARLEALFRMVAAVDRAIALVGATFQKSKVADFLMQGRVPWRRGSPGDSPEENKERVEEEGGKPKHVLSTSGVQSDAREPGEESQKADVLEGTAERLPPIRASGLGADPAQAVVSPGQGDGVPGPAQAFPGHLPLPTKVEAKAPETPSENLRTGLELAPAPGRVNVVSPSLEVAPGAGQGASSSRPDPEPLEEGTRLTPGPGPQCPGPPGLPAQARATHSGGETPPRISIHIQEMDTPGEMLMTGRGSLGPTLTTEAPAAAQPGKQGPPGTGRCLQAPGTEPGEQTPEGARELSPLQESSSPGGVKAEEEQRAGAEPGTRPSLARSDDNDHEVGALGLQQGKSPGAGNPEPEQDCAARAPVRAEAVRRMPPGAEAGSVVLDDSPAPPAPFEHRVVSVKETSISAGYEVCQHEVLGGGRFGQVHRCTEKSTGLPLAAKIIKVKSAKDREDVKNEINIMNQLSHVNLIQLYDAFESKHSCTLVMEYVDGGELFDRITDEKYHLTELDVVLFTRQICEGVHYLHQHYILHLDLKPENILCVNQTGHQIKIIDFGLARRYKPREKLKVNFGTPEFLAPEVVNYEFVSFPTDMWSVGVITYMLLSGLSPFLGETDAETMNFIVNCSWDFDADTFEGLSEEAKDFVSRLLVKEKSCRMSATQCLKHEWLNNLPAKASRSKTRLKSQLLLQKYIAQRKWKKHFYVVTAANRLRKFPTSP

panel of 442 kinases [8] = target: T8, panel of 442 kinases (Homo sapiens, UniProt Q8N568); details: DCAMKL2; for remaining activity at 1 µM: read-out: % of control at 1 µM
T8 construct: purchased Ambit Biosciences (scanMAXX KINOMEscan)

panel of 442 kinases [9] = target: T9, panel of 442 kinases (Homo sapiens, UniProt Q9UEW8); details: kinase STK39; for remaining activity at 1 µM: read-out: STK39 (% of control at 1 µM)
T9 construct: purchased Ambit Biosciences (scanMAXX KINOMEscan)

panel of 442 kinases [10] = target: T10, panel of 442 kinases (Homo sapiens, UniProt Q9Y243); details: AKT3; for remaining activity at 1 µM: read-out: % of control at 1 µM
T10 construct: purchased Ambit Biosciences (scanMAXX KINOMEscan)

panel of 442 kinases [11] = target: T11, panel of 442 kinases (Mycobacterium tuberculosis, UniProt P9WI81); details: for remaining activity at 1 µM: read-out: PKNB(M.tuberculosis) (% of control at 1 µM); for remaining activity at 10 µM: read-out: PKNB(M.tuberculosis) (% of control at 10 µM)
T11 construct: purchased Ambit Biosciences (scanMAXX KINOMEscan)

[12] = 10 µM, read-out: % of control at 10 µM

T11 sequence (P9WI81 whole entry): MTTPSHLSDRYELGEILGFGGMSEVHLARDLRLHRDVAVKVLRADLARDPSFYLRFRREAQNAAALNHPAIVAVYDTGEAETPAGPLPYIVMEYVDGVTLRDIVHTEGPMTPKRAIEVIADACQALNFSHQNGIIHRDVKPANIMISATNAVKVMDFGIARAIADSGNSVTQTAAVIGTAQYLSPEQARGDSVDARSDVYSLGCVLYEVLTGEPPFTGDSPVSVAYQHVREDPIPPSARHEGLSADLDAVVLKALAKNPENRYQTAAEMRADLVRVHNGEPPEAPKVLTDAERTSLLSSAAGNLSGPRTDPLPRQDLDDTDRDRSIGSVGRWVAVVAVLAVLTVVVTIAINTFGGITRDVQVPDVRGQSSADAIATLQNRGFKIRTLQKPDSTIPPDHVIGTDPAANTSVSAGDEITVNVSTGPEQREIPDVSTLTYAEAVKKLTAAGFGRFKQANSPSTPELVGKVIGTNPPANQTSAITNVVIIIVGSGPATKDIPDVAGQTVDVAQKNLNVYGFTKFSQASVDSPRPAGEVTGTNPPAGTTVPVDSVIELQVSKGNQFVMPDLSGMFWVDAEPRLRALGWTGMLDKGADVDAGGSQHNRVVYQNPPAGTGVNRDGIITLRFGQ
T3 sequence (P07949 29-1114 V804M): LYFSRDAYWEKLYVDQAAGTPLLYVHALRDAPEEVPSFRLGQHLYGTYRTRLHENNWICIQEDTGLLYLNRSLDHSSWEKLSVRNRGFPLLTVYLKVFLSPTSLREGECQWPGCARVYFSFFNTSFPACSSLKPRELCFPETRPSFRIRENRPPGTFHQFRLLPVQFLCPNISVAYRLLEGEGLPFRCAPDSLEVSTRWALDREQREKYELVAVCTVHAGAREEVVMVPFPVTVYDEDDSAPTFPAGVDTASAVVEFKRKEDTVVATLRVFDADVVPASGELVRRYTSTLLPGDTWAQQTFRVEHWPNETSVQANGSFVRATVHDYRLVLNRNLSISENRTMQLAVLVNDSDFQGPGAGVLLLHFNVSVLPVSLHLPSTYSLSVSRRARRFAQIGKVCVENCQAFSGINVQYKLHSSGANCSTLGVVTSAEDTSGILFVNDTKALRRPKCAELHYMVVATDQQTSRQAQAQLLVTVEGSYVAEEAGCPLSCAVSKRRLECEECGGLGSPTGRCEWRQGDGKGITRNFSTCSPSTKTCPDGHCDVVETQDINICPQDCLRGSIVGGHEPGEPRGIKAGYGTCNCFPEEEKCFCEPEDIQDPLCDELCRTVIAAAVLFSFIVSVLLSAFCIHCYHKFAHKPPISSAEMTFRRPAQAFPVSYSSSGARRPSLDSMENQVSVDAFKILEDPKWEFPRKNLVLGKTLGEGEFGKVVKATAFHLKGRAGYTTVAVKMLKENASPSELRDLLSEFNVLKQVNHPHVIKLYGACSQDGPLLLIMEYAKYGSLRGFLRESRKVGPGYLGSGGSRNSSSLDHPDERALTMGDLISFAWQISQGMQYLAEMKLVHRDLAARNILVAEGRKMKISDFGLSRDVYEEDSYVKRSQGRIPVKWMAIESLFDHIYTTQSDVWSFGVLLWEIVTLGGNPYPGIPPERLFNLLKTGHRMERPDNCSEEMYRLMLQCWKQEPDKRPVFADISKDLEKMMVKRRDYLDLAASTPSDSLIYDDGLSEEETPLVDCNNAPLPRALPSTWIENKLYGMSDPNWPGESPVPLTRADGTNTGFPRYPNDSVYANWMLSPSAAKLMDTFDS
T8 sequence (Q8N568 whole entry): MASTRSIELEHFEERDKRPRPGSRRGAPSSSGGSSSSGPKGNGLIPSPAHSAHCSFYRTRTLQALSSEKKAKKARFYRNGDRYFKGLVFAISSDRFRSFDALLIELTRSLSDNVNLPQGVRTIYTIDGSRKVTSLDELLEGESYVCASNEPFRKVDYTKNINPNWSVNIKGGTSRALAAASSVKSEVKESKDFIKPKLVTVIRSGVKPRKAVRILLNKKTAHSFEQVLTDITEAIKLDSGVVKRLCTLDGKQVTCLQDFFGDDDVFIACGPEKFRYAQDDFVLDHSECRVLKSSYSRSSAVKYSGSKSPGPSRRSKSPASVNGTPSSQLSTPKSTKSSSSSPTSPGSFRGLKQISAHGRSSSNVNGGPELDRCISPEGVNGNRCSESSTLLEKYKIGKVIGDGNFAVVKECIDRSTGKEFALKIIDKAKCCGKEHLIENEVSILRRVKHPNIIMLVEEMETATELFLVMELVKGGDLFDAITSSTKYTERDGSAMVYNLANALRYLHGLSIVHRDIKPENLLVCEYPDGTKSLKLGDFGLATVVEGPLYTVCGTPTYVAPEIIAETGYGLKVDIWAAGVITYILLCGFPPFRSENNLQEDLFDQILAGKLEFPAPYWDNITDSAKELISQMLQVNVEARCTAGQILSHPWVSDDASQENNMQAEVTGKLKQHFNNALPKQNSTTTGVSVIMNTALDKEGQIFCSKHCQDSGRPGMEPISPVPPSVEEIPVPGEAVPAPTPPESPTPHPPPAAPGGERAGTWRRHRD
T6 sequence (Q15759 whole entry): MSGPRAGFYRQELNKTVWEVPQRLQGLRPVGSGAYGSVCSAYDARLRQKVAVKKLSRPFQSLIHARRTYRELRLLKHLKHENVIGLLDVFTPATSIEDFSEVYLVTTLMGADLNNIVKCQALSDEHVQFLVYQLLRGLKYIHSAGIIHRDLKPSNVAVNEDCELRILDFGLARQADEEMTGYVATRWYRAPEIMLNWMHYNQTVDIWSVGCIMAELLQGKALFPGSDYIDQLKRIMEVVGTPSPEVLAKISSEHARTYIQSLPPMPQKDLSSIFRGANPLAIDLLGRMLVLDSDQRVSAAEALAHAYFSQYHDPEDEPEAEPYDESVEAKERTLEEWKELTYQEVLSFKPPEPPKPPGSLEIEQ
T1 sequence (O14578 whole entry): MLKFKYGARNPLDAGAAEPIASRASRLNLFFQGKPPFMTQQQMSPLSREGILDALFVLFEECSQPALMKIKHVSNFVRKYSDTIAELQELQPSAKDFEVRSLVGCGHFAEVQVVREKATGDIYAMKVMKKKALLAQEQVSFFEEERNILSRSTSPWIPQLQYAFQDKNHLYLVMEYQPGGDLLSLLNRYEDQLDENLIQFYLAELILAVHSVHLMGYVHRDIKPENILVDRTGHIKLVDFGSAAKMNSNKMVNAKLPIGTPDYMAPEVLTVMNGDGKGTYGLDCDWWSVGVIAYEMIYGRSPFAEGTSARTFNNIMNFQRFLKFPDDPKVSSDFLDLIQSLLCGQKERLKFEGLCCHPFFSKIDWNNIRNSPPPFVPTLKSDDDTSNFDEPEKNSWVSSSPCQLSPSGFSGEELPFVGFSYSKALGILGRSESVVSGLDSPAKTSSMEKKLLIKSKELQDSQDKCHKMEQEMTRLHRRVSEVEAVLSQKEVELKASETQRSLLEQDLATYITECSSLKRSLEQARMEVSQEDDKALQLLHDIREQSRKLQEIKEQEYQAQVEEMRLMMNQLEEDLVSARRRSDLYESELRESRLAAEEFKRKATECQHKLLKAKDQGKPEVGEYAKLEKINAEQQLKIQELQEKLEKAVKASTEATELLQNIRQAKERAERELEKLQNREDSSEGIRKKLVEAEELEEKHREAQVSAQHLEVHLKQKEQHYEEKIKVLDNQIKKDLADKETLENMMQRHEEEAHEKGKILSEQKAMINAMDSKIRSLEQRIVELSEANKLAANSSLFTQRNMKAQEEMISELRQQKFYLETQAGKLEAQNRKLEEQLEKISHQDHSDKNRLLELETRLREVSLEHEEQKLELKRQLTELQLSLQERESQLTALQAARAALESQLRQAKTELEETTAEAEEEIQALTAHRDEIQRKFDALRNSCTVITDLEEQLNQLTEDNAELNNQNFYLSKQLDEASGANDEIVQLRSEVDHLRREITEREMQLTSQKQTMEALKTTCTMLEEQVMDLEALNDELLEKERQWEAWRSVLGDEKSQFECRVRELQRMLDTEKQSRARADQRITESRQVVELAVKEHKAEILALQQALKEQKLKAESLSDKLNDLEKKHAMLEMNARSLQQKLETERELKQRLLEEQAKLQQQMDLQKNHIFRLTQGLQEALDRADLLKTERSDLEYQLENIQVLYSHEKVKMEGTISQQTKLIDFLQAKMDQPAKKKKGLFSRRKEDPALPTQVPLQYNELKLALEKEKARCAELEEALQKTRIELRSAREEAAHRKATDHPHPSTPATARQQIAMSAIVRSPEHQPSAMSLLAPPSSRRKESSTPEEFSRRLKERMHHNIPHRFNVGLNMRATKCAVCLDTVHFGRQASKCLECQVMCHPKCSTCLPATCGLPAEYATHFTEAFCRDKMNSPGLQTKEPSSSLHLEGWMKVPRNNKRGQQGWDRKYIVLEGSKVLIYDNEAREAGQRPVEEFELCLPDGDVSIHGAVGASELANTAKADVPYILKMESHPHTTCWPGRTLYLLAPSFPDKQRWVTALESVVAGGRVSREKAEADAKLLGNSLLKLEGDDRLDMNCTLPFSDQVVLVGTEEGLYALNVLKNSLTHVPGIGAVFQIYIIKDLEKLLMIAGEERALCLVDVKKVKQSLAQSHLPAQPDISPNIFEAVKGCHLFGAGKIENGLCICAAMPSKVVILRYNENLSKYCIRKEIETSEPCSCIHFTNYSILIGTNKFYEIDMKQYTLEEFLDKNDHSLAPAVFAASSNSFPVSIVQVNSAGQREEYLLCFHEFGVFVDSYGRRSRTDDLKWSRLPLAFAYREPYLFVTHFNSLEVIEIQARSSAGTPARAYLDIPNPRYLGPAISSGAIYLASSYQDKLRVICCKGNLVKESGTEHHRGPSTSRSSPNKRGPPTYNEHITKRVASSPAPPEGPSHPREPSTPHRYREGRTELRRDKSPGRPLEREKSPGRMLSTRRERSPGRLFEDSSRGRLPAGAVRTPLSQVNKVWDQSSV

| Structure (SMILES) | remaining activity at 1 µM (panel of 442 kinases [1]) [%] | remaining activity at 1 µM (panel of 442 kinases [2]; ABL1(T315I)-nonphosphorylated) [%] | remaining activity at 1 µM (panel of 442 kinases [2]; ABL1(T315I)-phosphorylated) [%] | remaining activity at 1 µM (panel of 442 kinases [3]) [%] | remaining activity at 1 µM (panel of 442 kinases [4]) [%] | remaining activity at 1 µM (panel of 442 kinases [5]) [%] | remaining activity at 1 µM (panel of 442 kinases [6]) [%] | remaining activity at 1 µM (panel of 442 kinases [7]) [%] | remaining activity at 1 µM (panel of 442 kinases [8]) [%] | remaining activity at 1 µM (panel of 442 kinases [9]) [%] | remaining activity at 1 µM (panel of 442 kinases [10]) [%] | remaining activity at 1 µM (panel of 442 kinases [11]) [%] | remaining activity at 10 µM (panel of 442 kinases [11]) [%] | also measured |
| --- | --- | --- | --- | --- | --- | --- | --- | --- | --- | --- | --- | --- | --- | --- |
| Nc1cc(C(F)(F)F)c(-c2cc(N3CCOCC3)nc(N3CCOCC3)n2)cn1 [Buparlisib] | 100 | 94 | 73 | 97 | 82 | 90 | 99 | 100 | 100 | 93 | 84 | 100 | 73 | remaining activity at 10 µM (panel of 442 kinases [1]; [12]): 100%; remaining activity at 10 µM (panel of 442 kinases [2]; ABL1(T315I)-nonphosphorylated): 78%; remaining activity at 10 µM (panel of 442 kinases [2]; ABL1(T315I)-phosphorylated): 100%; remaining activity at 10 µM (panel of 442 kinases [3]; 10 µM, read-out: RET(V804M) (% of control at 10 µM)): 100%; remaining activity at 10 µM (panel of 442 kinases [4]; 10 µM, read-out: RIPK4 (% of control at 10 µM)): 88%; remaining activity at 10 µM (panel of 442 kinases [5]; [12]): 91%; remaining activity at 10 µM (panel of 442 kinases [6]; [12]): 91%; remaining activity at 10 µM (panel of 442 kinases [7]; [12]): 100%; remaining activity at 10 µM (panel of 442 kinases [8]; [12]): 100%; remaining activity at 10 µM (panel of 442 kinases [9]; 10 µM, read-out: STK39 (% of control at 10 µM)): 100%; remaining activity at 10 µM (panel of 442 kinases [10]; [12]): 92% |
| Cn1c(=O)n(-c2ccc(C(C)(C)C#N)cc2)c2c3cc(-c4cnc5ccccc5c4)ccc3ncc21 [Dactolisib, 2-methyl-2-[4-(3-methyl-2-oxo-8-quinolin-3-yl-2,3-dihydroimidazo[4,5-c]quinolin-1-yl)-phenyl] propionitrile] | 65 | 58 |  |  | 57 | 45 | 99 | 80 | 94 | 100 | 84 | 100 |  |  |
| COc1ncc(-c2ccc3nccc(-c4ccnnc4)c3c2)cc1NS(=O)(=O)c1ccc(F)cc1F [Omipalisib] | 100 | 98 | 81 | 90 | 70 | 100 | 100 | 100 | 100 | 76 | 100 | 67 |  |  |
| CS(=O)(=O)N1CCN(Cc2cc3nc(-c4cccc5[nH]ncc45)nc(N4CCOCC4)c3s2)CC1 [Pictilisib, 2-(1H-indazol-4-yl)-6-(4-methanesulfonyl-piperazin-1-ylmethyl)-4-morpholin-4-yl-t hieno[3,2-d]pyrimidine] |  |  |  |  |  |  |  |  |  |  |  | 85 | 55 |  |
| FC(F)c1nc2ccccc2n1-c1nc(N2CCOCC2)nc(N2CCOCC2)n1 [ZSTK474, 2-(difluoromethyl)-1-[4,6-di(4-morpholinyl)-1,3,5-triazin-2-yl]-1H-benzimidazole] | 100 | 50 | 100 | 100 | 77 | 100 | 70 | 92 | 100 | 95 | 66 | 86 |  |  |
